Values after ≈ are worked out from the molar mass of the structure shown. Where two headings read alike, the source gives them in different places.
Experiments:
[1] = test system: Pseudomonas aeruginosa MB5890 (CB1101, efflux-deleted); assay: microbe, parasite or virus in culture; format: cell-based; details: * = some reduction of growth versus control at […]; for MIC: Pseudomonas aeruginosa, read-out: P. aeruginosa MB5890 efflux-del (MIC), MHII broth
[2] = biological target: T1, S. aureus DnaE (DNA polymerase III α-subunit homolog from Staphylococcus aureus) (Staphylococcus aureus, UniProt Q5HF71); assay: biochemical; format: biochemical
T1 construct: SaDnaE (S. aureus DnaE residues 1-1065); 6xHis (N); made in house; host or cells: E. coli BL21-AI
T1 sequence (Q5HF71 1-1065): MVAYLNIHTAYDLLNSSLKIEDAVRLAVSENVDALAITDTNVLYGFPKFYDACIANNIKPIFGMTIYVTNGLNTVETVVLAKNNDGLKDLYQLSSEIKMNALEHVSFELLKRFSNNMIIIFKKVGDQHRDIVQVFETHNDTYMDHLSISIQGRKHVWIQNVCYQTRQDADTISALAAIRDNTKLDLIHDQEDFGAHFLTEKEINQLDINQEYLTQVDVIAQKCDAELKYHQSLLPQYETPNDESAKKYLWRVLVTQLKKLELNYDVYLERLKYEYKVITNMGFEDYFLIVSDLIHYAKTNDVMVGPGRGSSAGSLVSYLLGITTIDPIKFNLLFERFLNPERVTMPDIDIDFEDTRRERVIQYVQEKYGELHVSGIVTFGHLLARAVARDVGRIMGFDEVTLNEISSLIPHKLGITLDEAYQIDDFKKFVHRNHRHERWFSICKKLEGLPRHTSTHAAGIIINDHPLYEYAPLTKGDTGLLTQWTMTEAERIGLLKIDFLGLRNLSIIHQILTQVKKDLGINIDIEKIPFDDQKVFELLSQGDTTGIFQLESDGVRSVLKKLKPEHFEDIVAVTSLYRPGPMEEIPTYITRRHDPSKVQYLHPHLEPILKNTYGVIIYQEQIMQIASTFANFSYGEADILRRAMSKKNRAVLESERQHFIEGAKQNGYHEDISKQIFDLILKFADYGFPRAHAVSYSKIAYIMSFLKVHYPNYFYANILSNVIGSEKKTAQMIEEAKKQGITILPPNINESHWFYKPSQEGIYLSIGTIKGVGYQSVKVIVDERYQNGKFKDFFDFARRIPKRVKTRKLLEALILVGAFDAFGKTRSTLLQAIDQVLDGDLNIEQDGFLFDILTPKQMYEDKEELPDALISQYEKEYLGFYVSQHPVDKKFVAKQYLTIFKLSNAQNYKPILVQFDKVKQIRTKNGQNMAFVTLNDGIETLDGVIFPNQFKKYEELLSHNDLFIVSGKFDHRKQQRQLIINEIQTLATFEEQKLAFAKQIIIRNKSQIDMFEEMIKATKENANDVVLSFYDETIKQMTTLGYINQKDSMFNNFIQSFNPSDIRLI
In short: (§1)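 His-tagged E. coli DnaE (residues 1-1160, 0.8 μg/ml) or S. aureus DnaE (residues 1-1065, 0.05 μg/ml) incubated 30 min at 30° C. with activated calf thymus DNA, 0.025 mM dATP/dGTP/dCTP and 0.011 mM 3H-dTTP in Tris pH 7.5/Mg acetate. TCA-precipitated labelled DNA counted.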

[3] = test system: Streptococcus pneumoniae MB6357 (CL 2883); assay: Nargenicin antibacterial assay (MIC), S. pneumoniae; format: cell-based; details: * = some reduction of growth versus control at […]; for MIC: Streptococcus pneumoniae, read-out: S. pneumoniae MB2883 (MIC), Isosensitest broth
[4] = test system: Staphylococcus aureus MB6266 (MRSA COL); assay: Nargenicin antibacterial assay (MIC), S. aureus; format: cell-based; details: * = some reduction of growth versus control at […]; for MIC: Staphylococcus aureus, MRSA, read-out: S. aureus COL (MIC), MHII broth + 50% human serum
[5] = biological target: T2, E. coli DnaE (DNA polymerase III α-subunit from Escherichia coli) (Escherichia coli, UniProt P10443); assay: In vitro DnaE single enzyme assay (E. coli); format: biochemical
T2 construct: EcDnaE (E. coli DnaE residues 1-1160); 6xHis (N); made in house; host or cells: E. coli BL21(DE3)
T2 sequence (P10443 whole entry, the tested form may be a part): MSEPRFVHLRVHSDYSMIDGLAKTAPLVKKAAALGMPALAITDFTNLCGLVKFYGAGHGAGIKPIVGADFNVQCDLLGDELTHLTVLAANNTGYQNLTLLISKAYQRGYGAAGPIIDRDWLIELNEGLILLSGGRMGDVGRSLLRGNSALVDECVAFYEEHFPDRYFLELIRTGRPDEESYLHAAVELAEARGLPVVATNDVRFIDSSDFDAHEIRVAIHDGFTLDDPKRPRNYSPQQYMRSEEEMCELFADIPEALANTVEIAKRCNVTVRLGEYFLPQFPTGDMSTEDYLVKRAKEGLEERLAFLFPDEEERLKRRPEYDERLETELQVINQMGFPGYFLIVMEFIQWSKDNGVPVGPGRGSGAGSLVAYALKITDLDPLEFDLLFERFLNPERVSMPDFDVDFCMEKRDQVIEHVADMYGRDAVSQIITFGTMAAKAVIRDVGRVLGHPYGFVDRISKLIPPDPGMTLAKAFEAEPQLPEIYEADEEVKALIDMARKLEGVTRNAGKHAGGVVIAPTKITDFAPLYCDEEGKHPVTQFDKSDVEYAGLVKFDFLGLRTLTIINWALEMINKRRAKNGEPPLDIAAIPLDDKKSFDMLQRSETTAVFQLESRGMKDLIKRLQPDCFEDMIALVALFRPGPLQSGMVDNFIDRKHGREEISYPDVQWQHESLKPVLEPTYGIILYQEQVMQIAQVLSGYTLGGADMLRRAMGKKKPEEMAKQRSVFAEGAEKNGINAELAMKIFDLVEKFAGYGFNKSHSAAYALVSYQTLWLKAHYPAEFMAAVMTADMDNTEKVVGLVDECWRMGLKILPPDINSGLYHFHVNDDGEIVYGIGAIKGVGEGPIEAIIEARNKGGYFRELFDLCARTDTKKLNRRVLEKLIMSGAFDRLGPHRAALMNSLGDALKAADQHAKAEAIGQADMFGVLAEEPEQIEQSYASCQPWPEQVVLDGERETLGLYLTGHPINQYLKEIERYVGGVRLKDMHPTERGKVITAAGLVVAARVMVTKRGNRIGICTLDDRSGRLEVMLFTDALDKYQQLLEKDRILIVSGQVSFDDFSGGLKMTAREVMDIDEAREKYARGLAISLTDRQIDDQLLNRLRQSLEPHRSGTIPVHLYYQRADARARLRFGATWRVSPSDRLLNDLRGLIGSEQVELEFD
In short: as §1

[6] = test system: Escherichia coli MB5747 (LS 883, tolC); assay: microbe, parasite or virus in culture; format: cell-based; details: * = some reduction of growth versus control at […]; for MIC: Escherichia coli, read-out: E. coli LS883 tolC (MIC), MHII broth
[7] = read-out: E. coli DnaE IC50 (converted)
[8] = read-out: S. aureus DnaE IC50 (converted)

SMILES | MIC [1] | IC50 ([2]; S. aureus DnaE IC50) | MIC [3] | MIC [4] | IC50 [5, 7] | MIC [6] | IC50 [2, 8] | IC50 ([5]; E. coli DnaE IC50) | P. aeruginosa MB5890 efflux-del (MIC) ([1]; MHII broth) | S. aureus DnaE IC50 [2] | S. pneumoniae MB2883 (MIC) ([3]; Isosensitest broth) | S. aureus COL (MIC) ([4]; MHII broth + 50% human serum) | E. coli DnaE IC50 [5] | E. coli LS883 tolC (MIC) ([6]; MHII broth)
CO[C@H]1C[C@H]2C=CC3C4[C@H](OC(=O)C(=O)OCCN5CCN(C)CC5)[C@@H](C)[C@@H](OC(=O)c5ccc[nH]5)[C@@H]3O[C@]42/C(C)=C/[C@@H](C)[C@@H]([C@@H](C)OC(=O)C(=O)OCCN2CCN(C)CC2)OC1=O.O=C(O)C(F)(F)F [Example 209] | > 128 µg/mL | < 0.00585 µM | > 128 µg/mL | 4 µg/mL | 16.6 µM | 4 µg/mL |  |  |  |  |  |  |  | 
CO[C@H]1C[C@H]2C=C[C@H]3[C@H]4O[C@]2(/C(C)=C/[C@@H](C)[C@@H]([C@@H](C)OC(=O)OC(C)C)OC1=O)[C@@H]3[C@H](O)[C@@H](C)[C@H]4OC(=O)c1ccc[nH]1 [Example 33] | > 128 µg/mL | 0.0349 µM | 8 µg/mL (≈ 13.3 µM) | 32 µg/mL | 58.2 µM | > 64 µg/mL |  |  |  |  |  |  |  | 
CO[C@H]1C[C@H]2C=C[C@H]3[C@H]4O[C@]2(/C(C)=C/[C@@H](C)[C@@H]([C@@H](C)OC(N)=O)OC1=O)[C@@H]3[C@H](O)[C@@H](C)[C@H]4OC(=O)c1ccc[nH]1 [Example 7] | 32 µg/mL (≈ 57.3 µM) | < 0.0107 µM | > 128 µg/mL | 4 µg/mL | 53.7 µM | 2 µg/mL (≈ 3.58 µM) |  |  |  |  |  |  |  | 
CO[C@H]1CC2C=C[C@H]3[C@H]4O[C@]2(/C(C)=C/[C@@H](C)[C@@H]([C@@H](C)OC(=O)C[n+]2ccc(C(N)=O)cc2)OC1=O)[C@@H]3[C@H](O)[C@@H](C)[C@H]4OC(=O)c1ccc[nH]1 (stereo partly drawn) [Example 70] | 16 µg/mL | < 0.00884 µM | > 128 µg/mL | 0.5 µg/mL | 13.3 µM | 0.5 µg/mL |  |  |  |  |  |  |  | 
CCCNC(=O)O[C@@H]1[C@@H](C)[C@@H](OC(=O)c2ccc[nH]2)[C@@H]2O[C@@]34/C(C)=C/[C@@H](C)[C@@H]([C@@H](C)OC(=O)NCCC)OC(=O)[C@@H](OC)C[C@H]3C=C[C@@H]2[C@@H]14 [Example 3] | > 128 µg/mL | > 146 µM | > 128 µg/mL | > 8 µg/mL | 30.6 µM | > 8 µg/mL |  |  |  |  |  |  |  | 
CO[C@H]1C[C@H]2C=C[C@H]3[C@H]4O[C@]2(/C(C)=C/[C@@H](C)[C@@H]([C@@H](C)OC(=O)NCCN(C)C)OC1=O)[C@@H]3[C@H](O)[C@@H](C)[C@H]4OC(=O)c1ccc[nH]1 [Example 5] | > 128 µg/mL |  | > 128 µg/mL | 32 µg/mL |  | 16 µg/mL (≈ 25.4 µM) | 0.0143 µM | > 159 µM |  |  |  |  |  | 
CO[C@H]1C[C@H]2C=C[C@H]3[C@H]4O[C@]2(/C(C)=C/[C@@H](C)[C@@H]([C@@H](C)O)OC1=O)[C@@H]3C(=O)C(C)[C@H]4C[N+](=O)[O-] (stereo partly drawn) [Example 162, (3R,4 S ,7S ,8aS ,10aR,11R,12 S ,14aR,14b S,E)-4-((R)-1-hydroxyethyl)-7-methoxy-1,3,13-trimethyl-12-(nitromethyl)-3 ,4,8,8a,10a,11,12,13-octahydro-11,14b-epoxynaphtho [2,1-e]oxecine-6,14(7H,14aH)-dione] | > 128 µg/mL |  | > 128 µg/mL | > 128 µg/mL |  | > 128 µg/mL | 17.3 µM | > 216 µM |  |  |  |  |  | 
CO[C@H]1C[C@H]2C=CC3C4[C@H](O)[C@@H](C)[C@@H](OC(=O)c5ccc[nH]5)[C@@H]3O[C@]42/C(C)=C/[C@@H](C)[C@@H]([C@@H](C)OC(=O)Nc2nnn[nH]2)OC1=O [Example 65] | 64 µg/mL (≈ 102 µM) | < 0.00957 µM | > 128 µg/mL | 2 µg/mL | 16 µM | 2 µg/mL (≈ 3.19 µM) |  |  |  |  |  |  |  | 
CO[C@H]1C[C@H]2C=C[C@H]3[C@H]4O[C@]2(/C(C)=C/[C@@H](C)[C@@H]([C@@H](C)O)OC1=O)[C@@H]3[C@H](O)C(C)[C@H]4C#N (stereo partly drawn) [Example 188, (3R,4S,7S,8aS,10aR,11R,12S,14R,14aS,14bS,E)-14-hydroxy-4-((R)-1-hydroxyethyl)-7-methoxy-1,3,13-trimethyl-6-oxo-3,4,6,7,8,8a,10a,11,12,13,14,14a-dodecahydro-11,14b-epoxynaphtho[2,1-e]oxecine-12-carbonitrile] | 64 µg/mL (≈ 148 µM) | 0.232 µM | 128 µg/mL (≈ 297 µM) | 128 µg/mL | > 232 µM | 32 µg/mL (≈ 74.2 µM) |  |  |  |  |  |  |  | 
CO[C@H]1CC2C=C[C@H]3[C@H]4O[C@]2(/C(C)=C/[C@@H](C)[C@@H]([C@@H](C)O)OC1=O)[C@@H]3[C@H](OC(=O)NC1CC1)[C@@H](C)[C@H]4OC(=O)c1ccc[nH]1 (stereo partly drawn) [Example 39] | > 128 µg/mL |  | > 128 µg/mL | > 128 µg/mL |  | > 128 µg/mL | 15 µM | > 167 µM |  |  |  |  |  | 
CO[C@H]1C[C@H]2C=CC3C4[C@H](O)[C@@H](C)[C@@H](OC(=O)c5cc(NC(=O)c6ccccc6)c[nH]5)[C@@H]3O[C@]42/C(C)=C/[C@@H](C)[C@@H]([C@@H](C)O)OC1=O [Example 167, (3R,4S,7S,8aS,11R,12R,13R,14R,14bS,E)-14-hydroxy-4-((R)-1-hydroxyethyl)-7-methoxy-1,3,13-trimethyl-6-oxo-3,4,6,7,8,8a,10a,11,12,13,14,14a-dodecahydro-11,14b-epoxynaphtho[2,1-e]oxecin-12-yl 4-benzamido-1H-pyrrole-2-carboxylate] | > 128 µg/mL | 3.15 µM | > 128 µg/mL | > 128 µg/mL | > 158 µM | > 128 µg/mL |  |  |  |  |  |  |  | 
CO[C@H]1C[C@H]2C=CC3C4[C@H](O)[C@@H](C)[C@@H](OC(=O)c5ccc[nH]5)[C@@H]3O[C@]42/C(C)=C/[C@@H](C)[C@@H]([C@@H](C)OC(=O)C(=O)NC2CC2)OC1=O [Example 117] |  |  |  |  |  |  |  |  | 4 µg/mL | 0.0007 µg/mL | 128 µg/mL | ≤0.125 µg/mL | 11 µg/mL | ≤0.125 µg/mL
CC[C@@H]1OC(=O)[C@@H](OC)C[C@H]2C=C[C@H]3[C@H]4O[C@]2(/C(C)=C/[C@H]1C)[C@@H]3[C@H](O)[C@@H](C)[C@H]4OC(=O)c1ccc[nH]1 [Example 49] | > 128 µg/mL | 0.56 µM | > 128 µg/mL | > 128 µg/mL | > 200 µM | 64 µg/mL (≈ 128 µM) |  |  |  |  |  |  |  | 
COC(=O)/C=C/c1c[nH]c(C(=O)O[C@@H]2[C@H](C)[C@@H](O)[C@@H]3[C@H]4C=CC5C[C@H](OC)C(=O)O[C@H](C(C)O)[C@H](C)/C=C(\C)[C@]53O[C@H]42)c1 (stereo partly drawn) [Example 166] | > 64 µg/mL | 0.3 µM | > 64 µg/mL | > 64 µg/mL | > 83.4 µM | 64 µg/mL (≈ 107 µM) |  |  |  |  |  |  |  | 
CO[C@H]1C[C@H]2C=C[C@H]3[C@H]4O[C@]2(/C(C)=C/[C@@H](C)[C@@H]([C@@H](C)O)OC1=O)[C@@H]3C(=O)C(C)[C@H]4C#N (stereo partly drawn) [Example 176, (3R,4 S ,7S ,8aS ,10aR,11R,12S ,14aR,14b S,E)-4-((R)-1-hydroxyethyl)-7-methoxy-1,3,13-trimethyl-6,14-dioxo-3,4,6,7,8,8a,10a,11,12,13,14,14a-dodecahydro-11,14b-epoxynaphtho[2,1-e]oxecine-12-carbonitrile] | > 128 µg/mL |  | > 128 µg/mL | > 128 µg/mL |  | > 128 µg/mL | 25.6 µM | > 233 µM |  |  |  |  |  | 
